The record followed here is ChEMBL document CHEMBL4145634, “Discovery of Janus Kinase 2 (JAK2) and Histone Deacetylase (HDAC) Dual Inhibitors as a Novel Strategy for the Combinational Treatment of Leukemia and Invasive Fungal Infections” (J Med Chem, 2018).

pIC50: −log10 of the molar value. Activity calls are given as the source filed them. The rule behind the calls is not given here. Bounds are passed on as bounds.

In data set [1] the target is T1, Histone deacetylase (Homo sapiens) (UniProt Q13547+O15379+Q9UBN7+Q92769+Q9UQL6+Q8WUI4+Q9BY41+Q96DB2+P56524+Q9UKV0+Q969S8). Kind of data set: Inhibition of HDAC in human HEL cells assessed as increased in histone H3 acetylation after 24 hrs by Western blot analysis. Format: cell-based. (In general: Immunoblotting shows a protein as a band on a membrane.)
The target of data set [2] is T1, Histone deacetylase (Homo sapiens). Kind of data set: Inhibition of HDAC in human HEL cells assessed as increased in histone H4 acetylation after 24 hrs by Western blot analysis. Format: cell-based.
Data set [3] deals with HEL. Kind of data set: Cell cycle arrest in human HEL cells assessed as accumulation at G2/M phase at 1 uM after 48 hrs propidium iodide staining based flow cytometry (reference value: 9.32%). Format: functional.
The subject of data set [4] is Candida albicans. Kind of data set: Antibiofilm activity against FLC resistant Candida albicans 0304103 assessed as inhibition of biofilm formation pre-incubated with 64 ug/ml FLC for 90 mins followed by further incubation with compound at 16 ug/ml for 24 hrs by XTT reduction assay. Format: functional. A general note: Tetrazolium dyes change colour on reduction, which living cells bring about.

The test system of data set [5] is HEL. The experiment in a line: Induction of apoptosis in human HEL cells at 10 uM after 48 hrs by Annexin-V-FITC/propidium iodide staining based flow cytometry relative to control. In kind it is functional. On the technique in general: In flow cytometry, cells or beads pass a laser one at a time.
Data set [6] has as its system HEL. Kind of data set: Cell cycle arrest in human HEL cells assessed as accumulation at G2/M phase at 5 uM after 48 hrs propidium iodide staining based flow cytometry (reference value: 9.31%). In kind it is functional.
Data set [7] deals with Candida albicans. The experiment in a line: Synergistic antifungal activity against FLC resistant Candida albicans 100 assessed as FIC index after 48 hrs by checkerboard microdilution method. Format: functional.
The test system of data set [8] is Candida albicans. The experiment in a line: Antifungal activity against FLC resistant Candida albicans 0304103 at 32 ug/ml up to 24 hrs by checkerboard microdilution method. Format: functional, organism-based.
Data set [9] has as its target T2, Tyrosine-protein kinase JAK3 (Homo sapiens, UniProt P52333).
T2 sequence (P52333 whole entry): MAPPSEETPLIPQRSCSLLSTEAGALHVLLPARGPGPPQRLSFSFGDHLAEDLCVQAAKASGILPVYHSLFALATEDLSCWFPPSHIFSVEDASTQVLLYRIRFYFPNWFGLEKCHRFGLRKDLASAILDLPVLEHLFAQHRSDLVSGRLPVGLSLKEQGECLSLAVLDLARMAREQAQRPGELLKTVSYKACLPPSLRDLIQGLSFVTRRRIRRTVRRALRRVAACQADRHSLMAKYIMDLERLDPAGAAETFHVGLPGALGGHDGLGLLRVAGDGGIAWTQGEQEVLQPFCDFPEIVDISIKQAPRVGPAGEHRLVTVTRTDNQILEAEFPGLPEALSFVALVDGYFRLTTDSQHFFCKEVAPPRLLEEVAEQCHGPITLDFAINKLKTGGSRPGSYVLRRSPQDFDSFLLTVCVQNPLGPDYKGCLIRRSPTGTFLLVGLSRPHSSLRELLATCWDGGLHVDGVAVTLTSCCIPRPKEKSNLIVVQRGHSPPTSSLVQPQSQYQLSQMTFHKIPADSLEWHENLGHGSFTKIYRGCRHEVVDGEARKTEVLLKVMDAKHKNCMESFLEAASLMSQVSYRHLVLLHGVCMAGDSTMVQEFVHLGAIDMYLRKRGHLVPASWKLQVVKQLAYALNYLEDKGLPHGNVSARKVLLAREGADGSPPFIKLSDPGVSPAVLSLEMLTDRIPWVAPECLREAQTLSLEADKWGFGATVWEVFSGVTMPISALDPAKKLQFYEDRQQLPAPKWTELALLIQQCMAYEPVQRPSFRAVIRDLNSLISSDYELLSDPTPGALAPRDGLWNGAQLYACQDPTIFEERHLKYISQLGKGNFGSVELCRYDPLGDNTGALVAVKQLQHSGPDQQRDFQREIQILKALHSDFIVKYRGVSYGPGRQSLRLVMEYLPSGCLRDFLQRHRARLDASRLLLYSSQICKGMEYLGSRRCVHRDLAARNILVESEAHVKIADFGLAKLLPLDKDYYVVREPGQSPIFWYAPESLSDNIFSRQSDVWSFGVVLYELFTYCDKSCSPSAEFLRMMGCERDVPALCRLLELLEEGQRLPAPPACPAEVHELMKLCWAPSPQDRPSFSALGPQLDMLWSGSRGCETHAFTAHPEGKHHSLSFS
The experiment in a line: Inhibition of JAK3 (unknown origin) using FAM-labeled peptide as substrate preincubated for 10 mins followed by substrate addition and measured after 25 mins in presence of ATP.

Data set [10] can be described thus: Clearance in ICR mouse liver microsomes at 1 uM measured up to 45 mins in presence of NADPH by LC-MS/MS analysis. Format: ADME, microsome. As to conditions: 0.75 h.
Data set [11] deals with Candida albicans. Kind of data set: Antifungal activity against FLC resistant Candida albicans 100 after 48 hrs by checkerboard microdilution method. As to conditions: Candida albicans, 100, 48 h. Format: functional.
For data set [12], the system named is HEL. The experiment in a line: Antitumor activity in human HEL cells xenografted in SCID mouse assessed as increase in mouse survival at 10 mg/kg, ip qd measured up to 40 days. Format: functional, organism-based.
Data set [13] deals with Non-receptor tyrosine-protein kinase TYK2 (Homo sapiens, UniProt P29597). Kind of data set: Inhibition of TYK2 (unknown origin) using FAM-labeled peptide as substrate preincubated for 10 mins followed by substrate addition and measured after 25 mins in presence of ATP.
The next data set has as its target T3, Histone deacetylase 8 (Homo sapiens, UniProt Q9BY41).
T3 sequence (Q9BY41 whole entry): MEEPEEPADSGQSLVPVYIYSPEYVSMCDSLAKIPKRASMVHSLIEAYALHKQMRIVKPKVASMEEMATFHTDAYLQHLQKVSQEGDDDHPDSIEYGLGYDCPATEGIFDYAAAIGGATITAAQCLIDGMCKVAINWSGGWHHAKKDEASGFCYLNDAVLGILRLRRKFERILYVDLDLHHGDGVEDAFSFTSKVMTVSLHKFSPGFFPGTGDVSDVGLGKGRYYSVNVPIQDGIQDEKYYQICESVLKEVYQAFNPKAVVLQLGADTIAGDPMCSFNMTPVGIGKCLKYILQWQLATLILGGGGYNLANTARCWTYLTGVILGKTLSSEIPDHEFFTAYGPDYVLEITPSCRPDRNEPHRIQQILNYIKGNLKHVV
Kind of data set: Inhibition of full length recombinant C-terminal His tagged human HDAC8 expressed in Baculovirus infected Sf9 cells using Ac-Leu-Gly-Lys(Tfa)-AMC as substrate preincubated for 5 mins followed by substrate addition and measured after 30 mins by fluorescence assay.

For the next data set, the target named is Histone deacetylase 1 (Homo sapiens, UniProt Q13547). The experiment in a line: Inhibition of full length human recombinant HDAC1 expressed in baculovirus expression system using (Ac-Leu-Gly-Lys(Ac)-AMC as substrate preincubated for 5 mins followed by substrate addition and measured after 30 mins by fluorescence assay.
Data set [14] addresses Tyrosine-protein kinase JAK2 (Homo sapiens, UniProt O60674). The experiment in a line: Inhibition of JAK2 (unknown origin) using FAM-labeled peptide as substrate preincubated for 10 mins followed by substrate addition and measured after 25 mins in presence of ATP.
Data set [15] has as its system HEL. Kind of data set: Antitumor activity in human HEL cells xenografted in SCID mouse assessed as mouse survival time at 10 mg/kg, ip qd. Format: functional.
Data set [16] concerns HEL. Kind of data set: Cell cycle arrest in human HEL cells assessed as accumulation at S phase at 5 uM after 48 hrs propidium iodide staining based flow cytometry relative to control. Format: functional.

Histone deacetylase 1, sequence (Q13547 whole entry): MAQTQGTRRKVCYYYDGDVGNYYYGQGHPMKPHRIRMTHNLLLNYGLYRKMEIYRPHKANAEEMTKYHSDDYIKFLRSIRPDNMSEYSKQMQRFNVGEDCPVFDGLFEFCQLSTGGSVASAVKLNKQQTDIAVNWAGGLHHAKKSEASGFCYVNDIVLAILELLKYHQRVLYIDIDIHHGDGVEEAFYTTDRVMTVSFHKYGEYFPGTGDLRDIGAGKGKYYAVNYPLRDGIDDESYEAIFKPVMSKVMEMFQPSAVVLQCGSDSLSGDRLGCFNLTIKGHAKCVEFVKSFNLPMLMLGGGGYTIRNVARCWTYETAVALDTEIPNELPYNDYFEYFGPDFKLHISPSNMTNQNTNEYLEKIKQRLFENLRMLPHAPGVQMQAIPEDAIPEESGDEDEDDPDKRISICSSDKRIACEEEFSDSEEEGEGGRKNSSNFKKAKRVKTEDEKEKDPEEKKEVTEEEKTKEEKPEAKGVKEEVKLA
Tyrosine-protein kinase JAK2, sequence (O60674 whole entry): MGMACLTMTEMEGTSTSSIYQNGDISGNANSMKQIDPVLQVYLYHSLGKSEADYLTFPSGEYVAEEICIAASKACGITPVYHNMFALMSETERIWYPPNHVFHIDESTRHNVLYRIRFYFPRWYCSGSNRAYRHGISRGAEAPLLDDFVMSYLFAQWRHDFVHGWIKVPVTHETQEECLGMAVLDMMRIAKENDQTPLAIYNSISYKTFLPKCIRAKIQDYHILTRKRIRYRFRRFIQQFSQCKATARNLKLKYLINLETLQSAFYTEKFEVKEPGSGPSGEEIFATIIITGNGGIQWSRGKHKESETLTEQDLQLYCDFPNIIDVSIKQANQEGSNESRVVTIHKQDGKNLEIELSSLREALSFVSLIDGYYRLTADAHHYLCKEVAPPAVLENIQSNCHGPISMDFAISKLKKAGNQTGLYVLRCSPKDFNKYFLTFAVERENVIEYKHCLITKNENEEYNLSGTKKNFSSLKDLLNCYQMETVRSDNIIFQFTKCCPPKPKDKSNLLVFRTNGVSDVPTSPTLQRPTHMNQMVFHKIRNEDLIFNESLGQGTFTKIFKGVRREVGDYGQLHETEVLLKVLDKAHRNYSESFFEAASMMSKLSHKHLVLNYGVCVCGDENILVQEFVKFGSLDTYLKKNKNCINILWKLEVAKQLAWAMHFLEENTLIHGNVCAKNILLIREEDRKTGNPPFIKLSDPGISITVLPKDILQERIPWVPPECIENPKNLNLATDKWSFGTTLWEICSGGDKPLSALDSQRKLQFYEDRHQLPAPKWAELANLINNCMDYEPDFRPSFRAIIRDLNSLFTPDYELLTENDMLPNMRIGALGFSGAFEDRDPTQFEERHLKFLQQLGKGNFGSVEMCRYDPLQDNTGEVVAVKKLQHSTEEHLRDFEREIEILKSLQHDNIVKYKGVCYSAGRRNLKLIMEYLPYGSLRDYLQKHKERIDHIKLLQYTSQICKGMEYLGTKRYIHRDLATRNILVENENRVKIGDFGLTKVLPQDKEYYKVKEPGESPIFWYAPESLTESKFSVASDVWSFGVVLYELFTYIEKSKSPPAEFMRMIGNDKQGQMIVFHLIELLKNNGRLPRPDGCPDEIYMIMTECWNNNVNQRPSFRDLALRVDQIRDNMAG
Non-receptor tyrosine-protein kinase TYK2, sequence (P29597 whole entry): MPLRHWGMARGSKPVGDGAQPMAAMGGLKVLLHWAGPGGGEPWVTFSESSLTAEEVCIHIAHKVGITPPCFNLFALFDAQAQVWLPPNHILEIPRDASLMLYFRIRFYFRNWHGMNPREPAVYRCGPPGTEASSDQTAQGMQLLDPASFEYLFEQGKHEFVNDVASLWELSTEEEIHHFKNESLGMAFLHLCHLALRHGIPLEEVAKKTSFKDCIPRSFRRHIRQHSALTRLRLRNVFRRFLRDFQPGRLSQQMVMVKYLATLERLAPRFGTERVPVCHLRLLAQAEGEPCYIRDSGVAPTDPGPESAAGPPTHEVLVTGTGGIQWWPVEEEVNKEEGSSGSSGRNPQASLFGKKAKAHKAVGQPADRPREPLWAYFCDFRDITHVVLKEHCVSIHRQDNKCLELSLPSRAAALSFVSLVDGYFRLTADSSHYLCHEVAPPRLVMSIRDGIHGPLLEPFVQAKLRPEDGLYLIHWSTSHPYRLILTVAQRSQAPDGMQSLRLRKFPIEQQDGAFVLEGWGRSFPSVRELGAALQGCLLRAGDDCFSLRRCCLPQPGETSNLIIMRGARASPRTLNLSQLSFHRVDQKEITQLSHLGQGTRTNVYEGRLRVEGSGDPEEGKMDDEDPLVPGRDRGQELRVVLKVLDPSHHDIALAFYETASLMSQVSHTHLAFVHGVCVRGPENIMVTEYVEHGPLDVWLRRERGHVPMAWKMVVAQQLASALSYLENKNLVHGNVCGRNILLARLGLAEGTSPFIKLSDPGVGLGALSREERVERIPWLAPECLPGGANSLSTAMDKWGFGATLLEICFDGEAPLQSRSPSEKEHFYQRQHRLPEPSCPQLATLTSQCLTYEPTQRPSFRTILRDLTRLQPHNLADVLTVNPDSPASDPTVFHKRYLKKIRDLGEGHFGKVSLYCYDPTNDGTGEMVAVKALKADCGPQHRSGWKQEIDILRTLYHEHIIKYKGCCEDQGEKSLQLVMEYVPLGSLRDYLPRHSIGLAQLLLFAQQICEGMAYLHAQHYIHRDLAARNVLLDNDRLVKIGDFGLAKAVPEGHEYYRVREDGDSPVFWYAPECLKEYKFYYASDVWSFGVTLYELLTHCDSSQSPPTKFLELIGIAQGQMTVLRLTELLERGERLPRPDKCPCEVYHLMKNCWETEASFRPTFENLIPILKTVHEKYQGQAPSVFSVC

As usually defined, the pIC50 is the negative decadic logarithm of the IC50, by convention in mol/L. Usually MIC50 stands for an inhibitory concentration at the 50% level, which refers to growth in some studies and to a panel of isolates in others. `CS(=O)(=O)Nc1ccc(-c2ccnc(Nc3ccc(N4CCC(C(=O)Nc5ccc(/C=C/C(=O)NO)cc5)CC4)cc3)n2)cc1`: the inhibition entry in [1] and in data set [2] was “Dose-dependent effect” each time. The Activity in the data set with HEL [3] was 11.75%; in the data set on HEL [5], 70.62%; in the data set with HEL [6] it was 28.14%. In addition, the “inhibition (INH)” value with Candida albicans [4] is reported as 30%. In addition, the “fractional inhibitory concentration index (FICI)” value with Candida albicans [7] was 0.07. In the data set on Candida albicans [8], the outcome was inactive. Also, the negative logarithm of the IC50 (pIC50) in data set [9] is 6.92; in [13], 7.34; on Histone deacetylase 8, 5.22; on Histone deacetylase 1, 6.60; in [14] it was 8.10. Besides, in data set [10], the CLH was found to be 71.6 µL/min/mg. The MIC50 with Candida albicans [11] is greater than 64 µg/mL. For the same compound, the result in the data set on HEL [12] was Active.
As for `CS(=O)(=O)Nc1ccc(-c2ccnc(Nc3ccc(N4CCC(C(=O)NCCCCCCCC(=O)NO)CC4)cc3)n2)cc1`, the inhibition entry in data set [1] and in data set [2] was “Dose-dependent effect” throughout. In addition, the Activity came to 8.23% in the data set with HEL [3], 89.2% with HEL [5], 8.12% in the data set with HEL [6] and 34.37% in the data set on HEL [16]. For the same compound, the “fractional inhibitory concentration index (FICI)” value with Candida albicans [7] was 0.13. Moreover, the outcome in the data set with Candida albicans [8] was inactive. Also, the pIC50 in data set [9] was 6.84; in data set [13], 7.13; on Histone deacetylase 8, 6.24; at Histone deacetylase 1, 7.74; in data set [14], 8.70. In addition, the CLH in data set [10] was found to be 88.1 µL/min/mg. Further, in the data set with HEL [15], the Survival was 27 days. Besides, in the data set with Candida albicans [11], the MIC50 was greater than 64 µg/mL. In addition, the outcome in the data set with HEL [12] was Active.
As to `O=C(NO)c1ccc(-c2ccnc(Nc3ccc(N4CCOCC4)cc3)n2)cc1`, the inhibition result in [1] and in data set [2] was “Dose-dependent effect” each time. Besides, the “inhibition (INH)” value with Candida albicans [4] was 30%. Also, the Activity with HEL [5] was found to be 86.2%; with HEL [16] it was 18.9%. In the data set on Candida albicans [7], the “fractional inhibitory concentration index (FICI)” value is 0.13. Besides, the result in the data set on Candida albicans [8] was inactive. The pIC50 was 6.29 in [9]; 6.38 in [13]; 6.22 at Histone deacetylase 8; 6.80 on Histone deacetylase 1; 7.07 in [14]. The CLH in data set [10] was 83.8 µL/min/mg. Besides, the Survival with HEL [15] came to 27 days. In addition, the MIC50 with Candida albicans [11] is greater than 64 µg/mL. The outcome with HEL [12] was Active.
